Experimental data taken from PubChem BioAssay (NCI).
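Compound exposure: 48 hours, 5 concentrations, 96-well plates. GI50: concentration for 50% inhibition of growth. TGI marks complete inhibition of growth.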

Key:
Test in all cases: inhibition of tumour cell growth, NCI panel, 48 h
[1] = system: ACHN renal
[2] = system: HOP-62 NSCLC
[3] = system: K-562 leukemia
[4] = system: NCI/ADR-RES ovarian
[5] = system: OVCAR-4 ovarian
[6] = system: OVCAR-8 ovarian
[7] = system: SK-MEL-5 melanoma
[8] = system: SK-OV-3 ovarian
[9] = system: SR leukemia
[10] = system: TK-10 renal

SMILES	GI50 [1] [µM]	TGI [1] [µM]	GI50 [2] [µM]	TGI [2] [µM]	GI50 [3] [µM]	TGI [3] [µM]	GI50 [4] [µM]	TGI [4] [µM]	GI50 [5] [µM]	TGI [5] [µM]	GI50 [6] [µM]	TGI [6] [µM]	GI50 [7] [µM]	TGI [7] [µM]	GI50 [8] [µM]	TGI [8] [µM]	GI50 [9] [µM]	TGI [9] [µM]	GI50 [10] [µM]	TGI [10] [µM]
O=C(c1cccc(O)c1O)c1cn(Cc2ccc(F)cc2)c2cccc(O)c12	3.2	14.9	5.41	19.5	3.56	> 37.7	2.59	15.2	3.13	16.2	3.56	18.9	1.73	4.97	4.49	16	0.867	7.81	7.01	26.8
CC12CCCC(O)C1CCC1=CC3(CCC12)SCCS3 (stereo not given)		> 10		> 10		> 10		> 10		> 10		> 10		> 10		> 10		> 10		> 10
CC(=O)OC1Oc2ccccc2-c2oc(=O)c(-c3cc4ccc(N(C)C)cc4oc3=O)cc21 (stereo not given)	10.4	23.2	4.63	25.4	2.98	> 100	6.11	34.7	1.29	24	10.3	37.7	3.46	15.4	13	45.5	1.75	14.5	5.4	19.5
CCS(=O)(=O)c1ccc(OC)c(Nc2ncc(-c3cccc(OC)c3)o2)c1	6.61	> 25	9.41	> 25	4.34	> 25	9.38	> 25	13.5	> 25	9.66	> 25	10	> 25	9.92	> 25	9.33	24.3	6.5	18.6
COc1ccc(C(C)c2cc3c(cc2OC)OCO3)cc1 (stereo not given)		> 100		> 46.2		> 57.6		28.2		> 100		17.1		2.31		27		> 5.04		> 100
CCN(CC)CCCC(C)Nc1c(C)cnc2cc(Cl)c(C)cc12 (stereo not given)	5.49	31.5	18.2	32.9	1.26	8.36	3.43	10.7	10.2	35.7	11.4	43.5	3.92	13.3	23.2	> 58		3.17	13.9	28.4
CCN(CC)c1sc(N(CC)CC)c2c1SSSSS2	1.07	3.28	2.61	4.99	1.64	> 100	0.89	2.53	0.697	2.46	2.18	4.7	0.851	1.95	3.13	6.98	0.267	0.998	0.765	1.88
CCN1C(=O)CNc2ncc(-c3ccc(-c4ncn[nH]4)nc3C)nc21	0.14	2.16	0.14	2.46	0.358	> 100	0.284	3.58	0.103	1.13	0.385	5.23	0.0864	0.792	0.102	0.617	0.253	4.09	0.0833	1.36
COc1ccc(OC)c(/C=C/C(=O)N/N=C/c2ccc(Cl)cc2)c1	1.61	> 100	0.102	> 70.9	0.042	> 100	0.0364	0.215	1.41	> 100	0.35	> 100	0.0363	12.6	0.0928	9.81	0.0389	16.4	0.383	> 100
CCC#CC[C@H]1C/C=C2/C(=O)C=C[C@@H]2C/C=C\CCCC(=O)O1	0.763	1.56	1.02	3.26	0.661	4.44	1.01	17.2	1.5	7.94	0.783	9.71	0.854	1.71	2.36	7.74	0.328	4.26	1.74	4.59
C[N+](C)(C)CC1CCCC(C[N+](C)(C)C)C1=O (stereo not given)		1.82		43.3		2.58		7.27		0.871		1.15		10.5		26		0.479		4
CC(=O)OC1CC(O)C23COC(O)C1(C)C2CC(O)C1(C)C3C(=O)C(O)C2(C)C(c3ccoc3)CC3OC321 (stereo not given)	0.685	> 100	0.685	> 100	< 0.01		71.9	> 100		> 100	0.191		< 0.01		> 100	> 100	< 0.01	0.0544	> 100	> 100
